Assay results published in PubChem BioAssay AID2305 (GlaxoSmithKline (GSK), 2010).
pIC50: −log10 of the molar value.

test system: P. falciparum 3D7 growth, pLDH absorbance; assay: P. falciparum 3D7 growth inhibition, dose response, strain 3D7 (AID 2305)

| Compound | pIC50 |
| --- | --- |
| Cc1cc(Cc2ccc(S(=O)(=O)c3cc4c(cc3O)CCN(C)CC4)cc2)ccc1Cl | 6.04 |
| COC(=O)c1cccc(CNCc2ccc(-c3ccc(-c4nc5c(C)cccc5[nH]4)s3)cc2)c1 | 6.40 |
| O=C(Nc1cccc(-c2ccc(-c3nc4ccc(F)cc4[nH]3)cc2)c1)c1ccoc1 | 6.02 |
| CC1CN(c2cc(=O)n(Cc3cccc(NC(=O)Nc4ccc(-c5ccccc5)cc4)c3)cn2)CC(C)N1 (stereo not drawn) | 6.40 |
| COc1ccc(-c2csc(NC(=O)CCC(=O)O)n2)cc1OC | 6.08 |
| Cc1cc2cc(CNCCc3ccccc3Br)ccc2nc1N | 6.62 |
| CCCN(CC1CC1)c1nc(C)nc2c(-c3ccccc3)cc(C)cc12 | 5.99 |
| O=C(Nc1cccc(-c2ccc(-c3nc4ccccc4[nH]3)cc2)c1)c1csnn1 | 5.97 |
| O=C(Cc1cnc[nH]1)Nc1ccc(-c2cccc(-c3nc4ccc(F)cc4[nH]3)c2)cc1 | 6.10 |
| C=CCN1C(=O)c2[nH]nc(-c3cc(C)c(C)cc3O)c2C1c1cccc(Br)c1 (stereo not drawn) | 5.94 |
| O=C(Nc1ccc(Cl)c(C(F)(F)F)c1)c1ccc(C(=O)Nc2ccc(Cl)c(C(F)(F)F)c2)cc1 | 6.00 |
| CN(c1cc(NC(=O)c2cccs2)ccn1)C1CCN(Cc2ccccc2)CC1 | 5.99 |
| CN1CCN(Cc2ccc(-c3cccc(-c4nc5ccccc5[nH]4)c3)cc2)CC1 | 5.86 |
| C=CCCCNCC(NCCCNc1cc(=O)c2ccccc2[nH]1)c1cc(Br)cc(Br)c1 (stereo not drawn) | 6.05 |
| CC[C@H]1CN2CC[C@H]1C[C@H]2[C@H](O)c1cc(-c2ccc(SC)cc2)nc2ccc(OC)cc12 | 7.22 |
| Cc1cccc2[nH]c(-c3cccc(-c4cccc(NC(=O)c5cnc[nH]5)c4)c3)nc12 | 6.59 |
| COCCNCc1nc(-c2ccc3c(Nc4ccc(F)c(O)c4)ccnc3c2)cs1 | 6.16 |
| O=C(NCc1ccc(F)cc1)c1cnc(N2CCN(c3ccncc3)CC2)c(Cl)c1 | 5.86 |
| Cc1ccc(CNC(=O)[C@H](Cc2ccccc2)Nc2cc(C)nc(NCCc3ccc(F)cc3)n2)cc1 | 6.01 |
| O=C(Nc1cccc(-c2cccc(CN3CCCC3)c2)c1)c1ccc(Cl)cc1 | 6.17 |
| Cc1c(CCc2cccc(F)c2F)[nH]c2ccccc2c1=O | 6.09 |
| CCCC(CNCc1cccc(OCC)c1)CNc1cc(=O)c2ccccc2[nH]1 (stereo not drawn) | 6.07 |
| O=C(Nc1cccc(CN2CCCN(CC3CC3)CC2)c1)c1ccc(-c2ccccc2)cc1 | 6.03 |
| CC(C)(C)c1ccc(-c2ccccc2CNC(=O)c2cccc(O)c2)cc1 | 6.57 |

| Compound | pIC50 |
| --- | --- |
| CNCCNCc1cccc(-c2cccc(-c3nc4ccc(F)cc4[nH]3)c2)c1 | 6.17 |
| Cc1ccc(C2=NNC3(S2)C(=O)Nc2ccc(C)cc23)cc1 (stereo not drawn) | 5.99 |
| CCOC(=O)c1ccc(-n2c(C)cc(C=C3SC(=Nc4ccccc4)N(C4CCCC4)C3=O)c2C)cc1 | 5.93 |
| Cc1nc(-c2ccc(-c3ccc(NC(=O)c4coc5ccc(N6C[C@@H](C)N[C@@H](C)C6)cc45)cc3)c(C)c2)no1 | 6.03 |
| Cc1cc(-c2ccc(NC(=O)N3CCc4cc(Br)c(N5CCN(C)CC5)cc43)cc2)ccc1C#N | 6.06 |
| CCOc1ccc(-c2nc3ccc(-c4nc5ccc(N6CCN(C)CC6)cc5[nH]4)cc3[nH]2)cc1 | 6.96 |
| CCOc1ncccc1CN1CCC(N2CCc3cc(NC(=O)c4ccco4)ccc32)C1 (stereo not drawn) | 6.12 |
| CCCNC(=O)c1cncc(-c2ccc(CNC(CC)c3ccccc3)cc2)c1 (stereo not drawn) | 6.06 |
| Cc1ccc(NC(=O)c2cn(-c3ccccc3)nc2-c2ccc(F)cc2)cc1[N+](=O)[O-] | 6.00 |
| O=C(Nc1ccc(NC2=NCCN2)cc1)c1ccc(C(=O)Nc2ccc(NC3=NCCN3)cc2)cc1 | 6.19 |
| CSC1=NC(=Nc2c(C)cccc2C)C2(CCCCC2)N1c1ccccc1Cl | 6.09 |
| CN(C(=O)Nc1ccc(C(F)(F)F)cc1)C1CCN(CCCCCNC(=O)/C=C/c2ccc(Cl)c(Cl)c2)CC1 | 6.48 |
| Cc1ccc2nc(-c3ccccc3)cc(NN=Cc3cccnc3)c2c1 | 6.16 |
| O=C(NCc1ccccc1S(=O)c1ccccc1CO)C(F)(F)F (stereo not drawn) | 6.74 |
| COc1cc2c(cc1N1C[C@@H](C)N[C@@H](C)C1)N(C(=O)c1ccc(-c3ccc(-c4ncc[nH]4)cc3C)cc1)CC2 | 6.14 |
| COc1ccc(-c2ccc(CNCc3ccc(F)cc3)cc2)cc1S(=O)(=O)NCCN1CCCC1 | 6.14 |
| Cc1oc(-c2ccccc2)nc1CCOc1ccc(C[C@H](Nc2ccccc2C(=O)c2ccccc2)C(=O)NCc2ccccn2)cc1 | 6.06 |
| CCN(CC)CCN(Cc1ccc(-c2ccc(C(F)(F)F)cc2)cc1)C(=O)Cn1c(/C=C/c2ccco2)nc(=O)c2ccccc21 | 6.06 |
| COc1cc(C(=O)NC2CC(C)(C)NC(C)(C)C2)ccc1-c1cc2cc(Cl)c(Cl)cc2[nH]1 | 6.14 |
| O=C(/C=C/c1ccc(C(F)(F)F)cc1)NCCCCCN1CCCN(C(=O)Nc2ccc(Cl)cc2)CC1 | 6.06 |
| CN(C)CC1c2[nH]c3ccccc3c2CCN1C(=O)Nc1ccc(Cl)c(Cl)c1 (stereo not drawn) | 5.92 |
| O=C(/C=C/c1cccs1)NCC(NCCCNc1cc(=O)c2ccccc2[nH]1)c1cc(Br)cc(Br)c1 (stereo not drawn) | 6.05 |
| Cc1cc2nc(-c3cccc(C(=O)NC4CCN(Cc5ccccc5)CC4)c3)[nH]c2cc1C | 6.08 |
| CCCN1CCN(CC(O)CNC(=O)Nc2ccc(Cl)cc2)CC1 (stereo not drawn) | 7.00 |
